Measured values as given in patent publication US20220305019A1, “PARAXANTHINE-BASED COMPOSITIONS FOR PROMOTING WEIGHT LOSS” (Ingenious Ingredients, LP, priority 2021, published 2022).

Test: Resting energy expenditure after oral ingestion of PX, crossover, two participants
Type: in vivo, human
Procedure: Upon determination of baseline resting energy expenditure, two participants were assigned in a randomized, double-blind, placebo-controlled, crossover fashion to ingest a non-energetic placebo (maltodextrin), 100 mg paraxanthine (PX), 200 mg PX or 300 mg PX. All supplements were orally ingested with 8 fluid ounces of cold tap water. The order of administration for all interventions was randomized using a random allocation software to ensure randomization and to avoid order effects. After ingestion, participants completed all assessments in an identical fashion 30, 60, 90, 120, and 180 minutes after ingestion of their assigned supplement. All study visits took place between 0600-1000 hours. At least 72 hours of rest took place between each condition.

Cn1c(=O)[nH]c2ncn(C)c2c1=O [PX, paraxanthine]
Resting Energy Expenditure (100 mg PX, 30 min, person one): 1,943 kcal/day | Resting Energy Expenditure (100 mg PX, 30 min, person two): 1,690 kcal/day | Resting Energy Expenditure (100 mg PX, 60 min, person one): 1,862 kcal/day | Resting Energy Expenditure (100 mg PX, 60 min, person two): 1,809 kcal/day | Resting Energy Expenditure (100 mg PX, 90 min, person one): 1,921 kcal/day | Resting Energy Expenditure (100 mg PX, 90 min, person two): 1,899 kcal/day | Resting Energy Expenditure (100 mg PX, 120 min, person one): 1,990 kcal/day | Resting Energy Expenditure (100 mg PX, 120 min, person two): 1,787 kcal/day | Resting Energy Expenditure (100 mg PX, 180 min, person one): 2,129 kcal/day | Resting Energy Expenditure (100 mg PX, 180 min, person two): 1,796 kcal/day | Resting Energy Expenditure MEAN (100 mg PX, Average of both): 1,883 kcal/day | Resting Energy Expenditure MEAN (100 mg PX, person one): 1,969 kcal/day | Resting Energy Expenditure MEAN (100 mg PX, person two): 1,796 kcal/day | Resting Energy Expenditure (200 mg PX, 30 min, person one): 2,007 kcal/day | Resting Energy Expenditure (200 mg PX, 30 min, person two): 1,703 kcal/day | Resting Energy Expenditure (200 mg PX, 60 min, person one): 1,702 kcal/day | Resting Energy Expenditure (200 mg PX, 60 min, person two): 1,782 kcal/day | Resting Energy Expenditure (200 mg PX, 90 min, person one): 2,048 kcal/day | Resting Energy Expenditure (200 mg PX, 90 min, person two): 1,864 kcal/day | Resting Energy Expenditure (200 mg PX, 120 min, person one): 2,221 kcal/day | Resting Energy Expenditure (200 mg PX, 120 min, person two): 1,872 kcal/day | Resting Energy Expenditure (200 mg PX, 180 min, person one): 2,067 kcal/day | Resting Energy Expenditure (200 mg PX, 180 min, person two): 1,853 kcal/day | Resting Energy Expenditure MEAN (200 mg PX, Average of both): 1,912 kcal/day | Resting Energy Expenditure MEAN (200 mg PX, person one): 2,009 kcal/day | Resting Energy Expenditure MEAN (200 mg PX, person two): 1,815 kcal/day | Resting Energy Expenditure (300 mg PX, 30 min, person one): 2,267 kcal/day | Resting Energy Expenditure (300 mg PX, 30 min, person two): 1,840 kcal/day | Resting Energy Expenditure (300 mg PX, 60 min, person one): 2,354 kcal/day | Resting Energy Expenditure (300 mg PX, 60 min, person two): 1,749 kcal/day | Resting Energy Expenditure (300 mg PX, 90 min, person one): 2,312 kcal/day | Resting Energy Expenditure (300 mg PX, 90 min, person two): 1,769 kcal/day | Resting Energy Expenditure (300 mg PX, 120 min, person one): 2,436 kcal/day | Resting Energy Expenditure (300 mg PX, 120 min, person two): 1,831 kcal/day | Resting Energy Expenditure (300 mg PX, 180 min, person one): 2,402 kcal/day | Resting Energy Expenditure (300 mg PX, 180 min, person two): 1,913 kcal/day | Resting Energy Expenditure MEAN (300 mg PX, Average of both): 2,098 kcal/day | Resting Energy Expenditure MEAN (300 mg PX, person one): 2,374 kcal/day | Resting Energy Expenditure MEAN (300 mg PX, person two): 1,822 kcal/day
